In PubChem BioAssay AID1996:
≈ marks a conversion by molar mass, not a printed value.

Settings: buffer; pH 7.4; 200.0 µM

Row | Structure (SMILES) | solubility kinetic [µg/mL]
1 | Cc1cc(C)nc(NC2=NCCN2C(=S)Nc2ccc(C)c(C)c2)n1 | 2.4 (≈ 6.77 µM)
2 | O=c1[nH]c2ccccc2[nH]c1=O | > 24.3
3 | Cc1ccc(C(=O)CNc2cc(C)ccc2C)cc1 | < 0.5
4 | COC(=O)c1c(N)sc2c1CC(C)(C)OC2 | > 36.2
5 | S=c1[nH]nc(C2CCCCC2)o1 | > 27.6
6 | COc1ccc(-c2nc3ncccc3o2)cc1NC(=O)c1cccs1 | 0.3 (≈ 0.854 µM)
7 | COc1cc(C=O)ccc1OCc1ccncc1 | 35.2 (≈ 145 µM)
8 | O=C(Nc1cccnc1)c1cc2c(s1)-c1ccccc1OC2 | 0.8 (≈ 2.59 µM)
9 | C/C(=N\O)c1cc(Cl)ccc1O | > 27.8
10 | Cn1c(SCC(=O)Nc2ccc(Cl)cc2)nc(O)cc1=O | > 48.9
11 | Cc1cc2c(NC3CCCCC3)ncnc2s1.Cl | 15
12 | CNC(=S)Nc1ccc2[nH]c(=O)[nH]c2c1 | > 33.3
13 | CCOc1cccc(Nc2ccc([N+](=O)[O-])cn2)c1 | 2.4 (≈ 9.26 µM)
14 | O=S(=O)(Cc1cc(-c2ccccc2Cl)no1)c1ccccc1 | 1.8 (≈ 5.39 µM)
15 | CCNc1nc(NC(C)C)nc(N(C)C#N)n1 | > 35.3
16 | CCCOC1CCCN(Cc2nc(-c3cnccn3)no2)C1 (stereo not given) | 41.3 (≈ 136 µM)
17 | CC1(C)OC2C(O1)[C@@H](CO)O[C@H]2n1cnc2c(N)ncnc21 (stereo not given in full) | > 46.1
18 | Cc1ccc(NC(=O)CCOc2ccccc2)c(C)c1 | 20.2 (≈ 75 µM)
19 | COc1ccc(/C=C2/SC(=S)NC2=O)cc1OCc1ccccc1 | < 0.8
20 | COCCCn1c(=O)c2sccc2n(Cc2ccccc2C)c1=O | > 51.7
21 | COc1cccc(OCC(=O)Nc2ccccc2-c2ccccc2)c1 | 1.5 (≈ 4.5 µM)
22 | N/C(Cc1nc(-c2ccc(F)cc2)cs1)=N\O | 36.4 (≈ 145 µM)
23 | Cc1noc(C)c1S(=O)(=O)Nc1ccccc1OC(F)(F)F | 48.6 (≈ 145 µM)
24 | NS(=O)(=O)c1ccc(S(=O)(=O)N2CCN(C3CCCC3)CC2)cc1 | 47.8 (≈ 128 µM)
25 | COc1ccc(CCNC(=O)c2ccc(OCc3c(C)noc3C)c(OC)c2)cc1 | 2.3 (≈ 5.6 µM)
26 | COc1ccccc1C1CC(=O)Nc2cc(C)c(C)cc21 (stereo not given) | < 0.6
27 | S=C(Nc1cccc(Cl)c1Cl)N1CCCC1 | 15.7 (≈ 57 µM)
28 | CC(=O)c1ccc(NC(=O)c2cnsn2)cc1 | 29.1 (≈ 118 µM)
29 | CC(=O)Nc1cc(NC(C)=O)cc(-c2nc3ccccc3[nH]2)c1 | > 46.3

More lines, now with the values ahead:

Row | solubility kinetic [µg/mL] | Structure (SMILES)
30 | 52.1 (≈ 146 µM) | CCOC(=O)C1CCN(C(=O)Nc2c(-c3ccccc3)noc2C)CC1
31 | 53.7 (≈ 135 µM) | COc1ccc(S(=O)(=O)N(Cc2ccccc2)c2ccccc2C(=O)O)cc1
32 | > 50.5 | O=C(NCc1ccccc1)C1CCN(C(=O)Cc2ccccc2)CC1
33 | 34 (≈ 108 µM) | Cc1ccc(OCc2cc(C(=O)NC3CCCCC3)no2)cn1
34 | > 54.8 | Cn1nc(C(=O)OCC(=O)NCCc2ccccc2)c2ccccc2c1=O
35 | 40.2 (≈ 149 µM) | Cc1ccc(C)c(NC(=S)NCc2ccccc2)c1
36 | 32.6 (≈ 118 µM) | Cc1ccc2cc(NC(=O)Cc3ccccc3)ccc2n1
37 | 3.3 (≈ 11.4 µM) | Cc1ccc(C(C)C)cc1S(=O)(=O)Nc1ccncc1
38 | 44.1 (≈ 135 µM) | CC(=O)c1cc(F)ccc1OCC(=O)N1CCCc2ccccc21
39 | > 66.7 | CCOC(=O)C1=C(C)NC(C)=C(C(=O)OCC)C1C(=O)OCC(=O)NCc1ccccc1
40 | > 60.1 | Cc1c(NC(=O)COC(=O)c2ccc(Cl)nc2)c(=O)n(-c2ccccc2)n1C
41 | > 39.2 | O=C(Cc1ccsc1)Nc1ccc2c(c1)OCO2
42 | 43.1 (≈ 121 µM) | COc1ccccc1NC(=O)CNC(=O)CC12CC3CC(CC(C3)C1)C2
43 | > 42.3 | CC1CC(=O)N(c2ccc(Br)cc2)C(=O)C1
44 | 45.6 (≈ 147 µM) | CCN1CCN(S(=O)(=O)c2ccc(C(C)(C)C)cc2)CC1
45 | > 54.8 | Cc1[nH]c2ccccc2c1C(=O)C(=O)N1CCN(C(=O)c2ccco2)CC1

Row | solubility kinetic [µg/mL] | Structure (SMILES)
46 | 40.3 (≈ 137 µM) | CN1CCN(c2oc(/C=C/c3ccccc3)nc2C#N)CC1
47 | > 42.8 | CC(C)CN(C(=O)c1ccco1)C1CCS(=O)(=O)C1 (stereo not given)
48 | 7.5 (≈ 29.8 µM) | Cc1ccoc1C(=O)Nc1ccc2ccccc2c1
49 | 2 (≈ 6.2 µM) | NC(=O)c1cc(S(=O)(=O)N2CCc3ccccc3C2)cs1
50 | 42.7 (≈ 149 µM) | Cc1ccc(Oc2ncccc2C(=O)NCC(=O)O)cc1
51 | > 49.4 | O=C(NCC(=O)N1CCN(c2ccccc2)CC1)c1cccs1
52 | 40.6 (≈ 133 µM) | O=C(c1cc2cccc([N+](=O)[O-])c2oc1=O)N1CCOCC1
53 | > 59.2 | COc1ccc(S(=O)(=O)N2CCOCC2)cc1C(=O)N(C)Cc1ccco1
54 | > 44.2 | COc1cc(NC(=O)CCN2CCOCC2)cc(OC)c1
55 | 0.7 (≈ 2.16 µM) | CN(C(=O)COC(=O)c1ccc(Cl)cc1N)C1CCCCC1
56 | > 44.3 | Cc1ccc(S(=O)(=O)NC(=O)Nc2cc(C)no2)cc1
57 | > 43.9 | CN(C(=O)COC(=O)c1ccc[nH]c1=O)C1CCCCC1
58 | 9.4 (≈ 29.2 µM) | CC(=O)N1CCc2cc(S(=O)(=O)N3CCCCC3C)ccc21 (stereo not given)
59 | > 49.9 | CCNC(=O)c1ccccc1SCC(=O)Nc1ccc(F)cc1
60 | 5.2 (≈ 14 µM) | O=C(Cc1ccc([N+](=O)[O-])cc1)N1CCN(c2ccc([N+](=O)[O-])cc2)CC1
